Data on nine compounds can be found in patent US20060241122A1, “Combination therapy for the treatment of neoplasms” (priority 2003, published 2006).

Like-named read-outs stand apart in the source and are kept apart here.

By inhibition is commonly meant the drop in the measured response relative to a control, in per cent.

For experiment [1], the system named is human prostate cancer DU145 cells. In words: Anti-proliferation assay (Alamar Blue metabolism), DU145 cells. The experiment is classed as cell-based. Conditions: Homo sapiens, DU-145, DU145 cells. An excerpt:
(§1) The combination matrices were used immediately and discarded.
A general note: The colour change of resazurin is a common sign of viable cells or microbes.

In experiment [2] the test system is human pancreatic cancer PANC1 cells. In words: Anti-proliferation assay (Alamar Blue metabolism), PANC1 cells. In kind it is cell-based. The conditions noted are these: PANC1 cells.
Excerpt: as §1

Experiment [3] deals with human melanoma SKMEL-28 cells. The experiment can be described thus: Anti-proliferation assay (Alamar Blue metabolism), SKMEL-28 cells. In kind it is cell-based.
Excerpt: as §1

Experiment [4] has as its system human colorectal carcinoma HCT116 cells. The experiment can be described thus: Anti-proliferation assay (Alamar Blue metabolism), HCT116 cells.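 Note: cells in 384-well plates exposed to compound combination matrices for 72 h, Alamar Blue fluorescence read (excitation 530 nm), inhibition calculated against mean of vehicle-only wells.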
Method: Stock solutions (1000×) of each compound were prepared in DMSO and stored at −20° C. Master stock plates of 2-fold or 4-fold serial dilutions of individual compounds were prepared in 384-well plates. Combination matrices of test compounds were generated from these master stock plates by dilution into growth media described above. […] The combination matrices were used immediately and discarded.
The anti-proliferation assays were performed in 384-well plates. […] Cells were diluted in culture media such that 3,000 SKMEL-28 cells, or 1,500 cells for all the other cell lines, were delivered in 35 μl of media into each assay well. Assay plates were incubated for 16-24 hours 37° C.±0.5° C. with 5% CO2. After incubation, 4.5 μl of 10× stock solutions from the combination matrices were added to 40 μl of culture media. Assay plates were further incubated for 72 hours at 37° C.±0.5° C. with 5% CO2. […] Alamar Blue metabolism was quantified by the amount of fluorescence intensity 3.5-5.0 hours after addition. Quantification, using an LJL Analyst AD reader (LJL Biosystems), was taken in the middle of the well with high attenuation, a 100 msec read time, an excitation filter at 530 nm, and an emission filter at 575 nm. For some experiments, quantification was performed using a Wallac Victor^2 reader. Measurements were taken at the top of the well with stabilized energy lamp control; a 100 msec read time, an excitation filter at 530 nm, and an emission filter at 590 nm.
The subject of experiment [5] is non-small cell lung carcinoma A549 cells. In words: Anti-proliferation assay (Alamar Blue metabolism), A549 cells. In kind it is cell-based. The conditions noted are these: A549 cells. The procedure: Inhibition of proliferation was measured by anti-proliferation assay as described below after incubation with the test compound(s) for 72 hours.
as §1
Cells were diluted in culture media such that 3,000 SKMEL-28 cells, or 1,500 cells for all the other cell lines, were delivered in 35 μl of media into each assay well. Assay plates were incubated for 16-24 hours 37° C.±0.5° C. with 5% CO2. […] Assay plates were further incubated for 72 hours at 37° C.±0.5° C. with 5% CO2. […] Alamar Blue metabolism was quantified by the amount of fluorescence intensity 3.5-5.0 hours after addition.
The percent inhibition (% I) for each well was calculated using the following formula: % I=[(avg. untreated wells−treated well)/(avg. untreated wells)]×100 The average untreated well value (avg. untreated wells) is the arithmetic mean of 40 wells from the same assay plate treated with vehicle alone.

Where [6] appears, read: Homo sapiens, HCT-116, read-out: Percent inhibition of Alamar Blue Metabolism, lovastatin […], econazole 0.0 μM.
The mark [7] stands for this setting: Homo sapiens, HCT-116, read-out: Percent inhibition of Alamar Blue Metabolism, tioconazole 0.0 μM, lovastatin […].
The mark [8] stands for this setting: with addition of 7 μM itraconazole.
[9] abbreviates: Homo sapiens, HCT-116, read-out: Percent inhibition of Alamar Blue Metabolism, lovastatin 0.0 μM, econazole […].
Setting [10] is: Homo sapiens, HCT-116, read-out: Percent inhibition of Alamar Blue Metabolism, tioconazole […], lovastatin 0.0 μM.

For `CC(C)n1c(/C=C/C(O)CC(O)CC(=O)O)c(-c2ccc(F)cc2)c2ccccc21` (stereo not shown) [Fluvastatin, fluvastatin], the inhibition at 12 µM in experiment [1] (12 μM fluvastatin + 14 μM itraconazole) worked out at 40.3%; in experiment [1] (12 μM fluvastatin, absence of itraconazole) it was 15.5%; in experiment [2] (Homo sapiens, PANC-1, 12 μM fluvastatin + 7 μM itraconazole), 56.8%. Also, the inhibition at 49 µM in experiment [1] (fluvastatin 49 μM alone, read-out: maximal inhibition) is 58.3%; in experiment [2] (Homo sapiens, PANC-1, fluvastatin 49 μM alone, read-out: maximal inhibition), 59.9%; in experiment [3] (Homo sapiens, SK-MEL-28, SKMEL-28 cells, fluvastatin 49 μM alone, read-out: maximal inhibition), 27.8%; in experiment [4] (Homo sapiens, HCT-116, read-out: maximal inhibition, HCT116 cells, fluvastatin 49 μM alone), 93.1%. Further, the inhibition at 3 µM in experiment [3] (Homo sapiens, SK-MEL-28, SKMEL-28 cells, 3 μM fluvastatin + 7 μM itraconazole) is 59.5%. Moreover, the “reduction in the concentration of fluvastatin” value in experiment [3] (SKMEL-28 cells, 3 μM with 7 μM itraconazole vs 49 μM alone) is 16 fold; in experiment [4] (HCT116 cells, […] with 7 μM itraconazole vs 49 μM alone), 8 fold. In addition, in experiment [3] (Table 13: itraconazole 0.87 μM + fluvastatin at row conc. c1 (0-49 μM), 72 h), the “Percent inhibition of Alamar Blue Metabolism in SKMEL-28 cells” value came to 35.4%. The inhibition at […] in experiment [4] (Homo sapiens, HCT-116, HCT116 cells, […] fluvastatin + 7 μM itraconazole) is 91.9%.

For `CC[C@H](C)C(=O)O[C@H]1C[C@@H](C)C=C2C=C[C@H](C)[C@H](CC[C@@H]3C[C@@H](O)CC(=O)O3)[C@H]21` [Lovastatin, lovastatin], the “reduction in the concentration of lovastatin” value in experiment [4] (HCT116 cells, 6 μM with […] itraconazole vs 48 μM alone) stood at 8 fold. In addition, the inhibition at 6 µM came to 70.1% in experiment [4] (Homo sapiens, HCT-116, HCT116 cells, 6.0 μM lovastatin + 9.0 μM tioconazole); 83.4% in experiment [4] (Homo sapiens, HCT-116, HCT116 cells, 6 μM lovastatin + […] itraconazole); 46.1% in experiment [4] (Homo sapiens, HCT-116, read-out: Percent inhibition of Alamar Blue Metabolism, tioconazole 0.0 μM, lovastatin 6.0 μM). Moreover, the inhibition at 18 µM worked out at 84.5% in experiment [4] (Homo sapiens, HCT-116, HCT116 cells, 18 μM lovastatin + […] econazole) and 41.3% in experiment [4] (setting [6]). In addition, the inhibition at 0.3 µM in experiment [4] (Homo sapiens, HCT-116, read-out: Percent inhibition of Alamar Blue Metabolism, lovastatin 0.3 μM, econazole 0.0 μM) was 10.5%. Besides, the inhibition at 0.6 µM in experiment [4] (Homo sapiens, HCT-116, read-out: Percent inhibition of Alamar Blue Metabolism, lovastatin 0.6 μM, econazole 0.0 μM) came out at 5.4%. The inhibition at 9 µM in experiment [4] (Homo sapiens, HCT-116, read-out: Percent inhibition of Alamar Blue Metabolism, lovastatin 9.0 μM, econazole 0.0 μM) is 27.3%. Also, the inhibition at 36 µM in experiment [4] (setting [6]) turned out to be 95.6%; in experiment [4] (Homo sapiens, HCT-116, read-out: maximal inhibition, HCT116 cells, lovastatin 36 μM alone (Example 20)), 95.6%. For the same compound, the inhibition at 0.2 µM in experiment [4] (Homo sapiens, HCT-116, read-out: Percent inhibition of Alamar Blue Metabolism, tioconazole 0.0 μM, lovastatin 0.2 μM) stood at 9.8%. Besides, in experiment [4] (Homo sapiens, HCT-116, read-out: Percent inhibition of Alamar Blue Metabolism, tioconazole 0.0 μM, lovastatin 0.4 μM), the inhibition at 0.4 µM was 23.1%. Moreover, the inhibition at 0.8 µM in experiment [4] (Homo sapiens, HCT-116, read-out: Percent inhibition of Alamar Blue Metabolism, tioconazole 0.0 μM, lovastatin 0.8 μM) was 12.3%. Further, the inhibition at 3 µM in experiment [4] (Homo sapiens, HCT-116, read-out: Percent inhibition of Alamar Blue Metabolism, tioconazole 0.0 μM, lovastatin 3.0 μM) was 29.9%. For the same compound, the inhibition at 12 µM in experiment [4] (setting [7]) was determined as 50%. Also, the inhibition at 24 µM turned out to be 61.9% in experiment [4] (setting [7]) and 61.9% in experiment [4] (Homo sapiens, HCT-116, read-out: maximal inhibition, HCT116 cells, lovastatin 24 μM alone (Example 22)). Also, the inhibition at […] in experiment [4] (setting [7]) is 32.2%. The inhibition at 48 µM in experiment [4] (Homo sapiens, HCT-116, read-out: maximal inhibition, HCT116 cells, lovastatin 48 μM alone (Example 14)) came out at 55%. Also, the “Percent inhibition of Alamar Blue Metabolism in HCT116 cells” value in experiment [4] (Table 14: itraconazole 14 μM + lovastatin at row conc. c1 (0-48 μM), 72 h) is on record as 88.9%.

`CCC(C)(C)C(=O)O[C@H]1C[C@@H](C)C=C2C=C[C@H](C)[C@H](CC[C@@H]3C[C@@H](O)CC(=O)O3)[C@H]21` [Simvastatin, simvastatin]: the “simvastatin concentration required for nearly maximal inhibition” value in experiment [2] (setting [8]) and in experiment [5] (setting [8]) was 12 µM each time. For the same compound, the reduction in simvastatin in experiment [3] (SKMEL-28 cells, 6 μM with 7 μM itraconazole vs 48 μM alone) is reported as 8 fold. Moreover, the “inhibition of cell proliferation” value in experiment [3] (SKMEL-28 cells, 9 μM statin + 7 μM itraconazole) came out at 61.8%. For the same compound, in experiment [3] (SKMEL-28 cells, 9 μM statin, absence of itraconazole), the inhibition amounted to 24.0%. Further, the “reduction in the concentration of simvastatin” value in experiment [5] (12 μM with 7 μM itraconazole vs 48 μM alone) stood at 4 fold. Besides, the inhibition at 12 µM in experiment [4] (Homo sapiens, HCT-116, HCT116 cells, 12 μM simvastatin + 7 μM itraconazole) was determined as 92.7%.

As to `COCc1c(C(C)C)nc(C(C)C)c(/C=C/[C@@H](O)C[C@@H](O)CC(=O)O)c1-c1ccc(F)cc1` [cerivastatin], the “reduction in the concentration of cerivastatin” value in experiment [4] (HCT116 cells, […] with […] itraconazole vs 22 μM alone) is on record as 8 fold. In addition, the inhibition at 22 µM in experiment [4] (Homo sapiens, HCT-116, read-out: Percent inhibition of Alamar Blue Metabolism, cerivastatin 22 μM, itraconazole 0 μM) stood at 85.5%; in experiment [4] (Homo sapiens, HCT-116, read-out: maximal inhibition, HCT116 cells, cerivastatin 22 μM alone), 85.5%.

For `Clc1ccccc1C(c1ccccc1)(c1ccccc1)n1ccnc1` [clotrimazole], the inhibition at 0.5 µM in experiment [4] (Homo sapiens, HCT-116, read-out: Percent inhibition of Alamar Blue Metabolism, atorvastatin 0.0 μM, clotrimazole 0.5 μM) amounted to 25.9%. In addition, in experiment [4] (Homo sapiens, HCT-116, read-out: Percent inhibition of Alamar Blue Metabolism, atorvastatin 0.0 μM, clotrimazole 0.9 μM), the inhibition at 0.9 µM was found to be 35.8%.

In the case of `Clc1ccc(COC(Cn2ccnc2)c2ccc(Cl)cc2Cl)cc1` (stereo not shown) [econazole], in experiment [4] (Homo sapiens, HCT-116, read-out: Percent inhibition of Alamar Blue Metabolism, atorvastatin 0.0 μM, econazole 0.4 μM), the inhibition at 0.4 µM came to 0.7%. In experiment [4] (Homo sapiens, HCT-116, read-out: Percent inhibition of Alamar Blue Metabolism, atorvastatin 0.0 μM, econazole 0.7 μM), the inhibition at 0.7 µM is -1.7%. Moreover, the inhibition at 2.8 µM in experiment [4] (Homo sapiens, HCT-116, read-out: Percent inhibition of Alamar Blue Metabolism, atorvastatin 0.0 μM, econazole 2.8 μM) is 1.6%. In addition, the inhibition at 0.4 µM in experiment [4] (Homo sapiens, HCT-116, read-out: Percent inhibition of Alamar Blue Metabolism, lovastatin 0.0 μM, econazole 0.4 μM) worked out at 0.6%. Also, the inhibition at 0.8 µM in experiment [4] (Homo sapiens, HCT-116, read-out: Percent inhibition of Alamar Blue Metabolism, lovastatin 0.0 μM, econazole 0.8 μM) is 8.8%. Also, the inhibition at 3 µM in experiment [4] (Homo sapiens, HCT-116, read-out: Percent inhibition of Alamar Blue Metabolism, lovastatin 0.0 μM, econazole 3.0 μM) was 23.9%. Moreover, in experiment [4] (Homo sapiens, HCT-116, read-out: Percent inhibition of Alamar Blue Metabolism, lovastatin 0.0 μM, econazole 6.0 μM), the inhibition at 6 µM came out at 36.7%. Further, the inhibition at 48 µM in experiment [4] (Homo sapiens, HCT-116, read-out: Percent inhibition of Alamar Blue Metabolism, lovastatin 0.0 μM, econazole 48.0 μM) was 96.1%. In experiment [4] (setting [9]), the inhibition at 12 µM came out at 57.2%, the inhibition at 24 µM is 78.6% and the inhibition at […] came to 14.9%. In addition, the inhibition at 36 µM in experiment [4] (Homo sapiens, HCT-116, read-out: maximal inhibition, HCT116 cells, 36 μM alone (Example 18)) worked out at 83.1%.

As for `CC[C@H](C)C(=O)O[C@H]1C[C@@H](C)C=C2C=C[C@H](C)[C@H](CCC(O)C[C@@H](O)CC(=O)O)[C@H]21` (stereo partly shown) [lovastatin sodium], in experiment [4] (HCT116 cells, 2.8 μM with 7 μM itraconazole vs 22 μM alone), the “reduction in the concentration of lovastatin” value came out at 8 fold. The inhibition at 2.8 µM in experiment [4] (Homo sapiens, HCT-116, HCT116 cells, 2.8 μM lovastatin sodium + 7 μM itraconazole) was 82%. In experiment [4] (Homo sapiens, HCT-116, read-out: maximal inhibition, HCT116 cells, lovastatin sodium 22 μM alone), the inhibition at 22 µM was found to be 58.9%.

Take `CC(C)N1CCN(c2ccc(OCC3COC(Cn4cncn4)(c4ccc(Cl)cc4Cl)O3)cc2)CC1` (stereo not shown) [terconazole]: in experiment [4] (Homo sapiens, HCT-116, read-out: Percent inhibition of Alamar Blue Metabolism, atorvastatin 0 μM, terconazole 19 μM), the inhibition at 19 µM stood at 38.4%. In addition, the inhibition at 38 µM in experiment [4] (Homo sapiens, HCT-116, read-out: Percent inhibition of Alamar Blue Metabolism, atorvastatin 0 μM, terconazole 38 μM) turned out to be 94.8%.

Regarding `Clc1ccc(C(Cn2ccnc2)OCc2ccsc2Cl)c(Cl)c1` (stereo not shown) [tioconazole], the inhibition at 0.3 µM in experiment [4] (Homo sapiens, HCT-116, read-out: Percent inhibition of Alamar Blue Metabolism, tioconazole 0.3 μM, lovastatin 0.0 μM) turned out to be 8.6%. Moreover, the inhibition at 0.6 µM in experiment [4] (Homo sapiens, HCT-116, read-out: Percent inhibition of Alamar Blue Metabolism, tioconazole 0.6 μM, lovastatin 0.0 μM) turned out to be 3.7%. Besides, the inhibition at 9 µM in experiment [4] (Homo sapiens, HCT-116, read-out: Percent inhibition of Alamar Blue Metabolism, tioconazole 9.0 μM, lovastatin 0.0 μM) was 19.8%. Moreover, in experiment [4] (setting [10]), the inhibition at 18 µM is 26.8% and the inhibition at 36 µM is 41.3%.
